Laboratory results published in ChEMBL document CHEMBL5113404, “Design, synthesis and biological evaluation of new parbendazole derivatives for the treatment of HNSCC” (Eur J Med Chem, 2022).
Activity calls are given as the source filed them. No cut-off for these calls is given here.

Experiments:
[1] = Induction of apoptosis in human HN-6 cells assessed as viable cells at 1 micromol/L incubated for 24 hrs by Annexin-V/FITC-PI staining based flow cytometry analysis (reference value: 97.26%); assay type: functional; conditions: HN-6, 24 h, dose 1 µmol/L, read-out: Activity
FaDu = assay: Antiproliferative activity against human FaDu cells assessed as cell growth inhibition incubated for 72 hrs by CCK-8 assay; assay type: functional, cell-based; conditions: read-out: IC50
CAL-27 = assay: Antiproliferative activity against human CAL-27 cells assessed as cell growth inhibition incubated for 72 hrs by CCK-8 assay; assay type: functional, cell-based; conditions: CAL-27, 72 h
[2] = Tmax in rat at 100 mg/kg,IG measured upto 24 hrs by HPLC analysis; assay type: ADME, organism-based; conditions: in vivo, po
[3] = Antimigratory activity in human HN-6 cells assessed as inhibition of cell migration at 0.1 micromol/L measured after 24 hrs by scratch wound assay based fluorescence microscope analysis; assay type: functional; conditions: HN-6, 24 h, dose 0.1 µmol/L
[4] = Acute toxicity in Kunming mouse assessed as adverse effect at 1 g/Kg,IG after 15 days of administration; conditions: in vivo, po, 1000 mg/kg, 360 h, time 15 day
[5] = Cmax in rat at 100 mg/kg,IG measured upto 24 hrs by HPLC analysis; assay type: ADME, organism-based; design: dose 100 mg/kg, time < 24 hrs, route ig; conditions: in vivo, po
Tubulin = assay: Inhibition of tubulin polymerization (unknown origin) by fluorescence based analysis; assay type: protein-complex assay, Homo sapiens
[6] = Induction of cell cycle arrest in human HN-6 cells assessed as accumulation of cells at S phase at 0.1 micromol/L incubated for 24 hrs by PI staining based flow cytometry analysi (reference value: 32.12%); assay type: functional; conditions: dose 0.1 µmol/L, at 0.1 µM
[7] = Induction of apoptosis in human HN-6 cells assessed as late apoptotic cells at 1 micromol/L incubated for 24 hrs by Annexin-V/FITC-PI staining based flow cytometry analysis (reference value: 8.81%); assay type: functional; conditions: dose 1 µmol/L, at 1 µM
[8] = Cytotoxicity against human HFF-1 clls assessed as reduction in cell viability incubated for 72 hrs by CCK-8 assay; assay type: toxicity, cell-based; conditions: HFF-1 cells
[9] = Induction of apoptosis in human HN-6 cells assessed as early apoptotic cells at 0.1 micromol/L incubated for 24 hrs by Annexin-V/FITC-PI staining based flow cytometry analysis (reference value: 2.04%); assay type: functional; conditions: dose 0.1 µmol/L, at 0.1 µM
[10] = Half life in rat at 100 mg/kg,IG measured upto 24 hrs by HPLC analysis; assay type: ADME, organism-based; conditions: in vivo, po
[11] = Induction of apoptosis in human HN-6 cells assessed as late apoptotic cells at 0.1 micromol/L incubated for 24 hrs by Annexin-V/FITC-PI staining based flow cytometry analysis (reference value: 8.81%); assay type: functional; conditions: dose 0.1 µmol/L, at 0.1 µM
[12] = Acute toxicity in Kunming mouse assessed as death at 1 g/Kg,IG after 15 days of administration; conditions: in vivo, po, 1000 mg/kg, 360 h, time 15 day
HN-6 [13] = assay: Inhibition of cell invasion in human HN-6 cells at 200 to 500 nmol/L incubated for 24 hrs by crystal violet staining based transwell assay; assay type: functional; conditions: dose 200-500 nmol/L
Tubulin (Homo sapiens) = Tubulin (Homo sapiens) (UniProt P68371+Q9H4B7+P0DPH7+P68366+Q13509+Q71U36+P04350+Q3ZCM7+P07437+P68363+Q9BQE3+Q6PEY2+Q13885+Q9BVA1+Q9BUF5); assay: Inhibition of tubulin polymerization (unknown origin) at 20 micromol/L by fluorescence based analysis; assay type: protein-complex assay; conditions: dose 20.0 µmol/L
[14] = Induction of apoptosis in human HN-6 cells assessed as early apoptotic cells at 1 micromol/L incubated for 24 hrs by Annexin-V/FITC-PI staining based flow cytometry analysis (reference value: 2.04%); assay type: functional; conditions: dose 1 µmol/L, at 1 µM
[15] = Induction of apoptosis in human HN-6 cells assessed as necrotic cells at 0.1 micromol/L incubated for 24 hrs by Annexin-V/FITC-PI staining based flow cytometry analysis (reference value: 2.08%); assay type: functional; conditions: dose 0.1 µmol/L, at 0.1 µM
[16] = Acute toxicity in IG dosed Kunming mouse assessed as lethal dose after 15 days of administration; assay type: organism-based; conditions: in vivo, po, time 15 day
HN-6 [17] = assay: Induction of cell morphological changes in human HN-6 cells assessed as decrease in tubulin network around nucleus at 100 nmol/L incubated for 24 hrs by DAPI staining based confocal microscopy analysis; assay type: functional
[18] = Antiproliferative activity against human HN-6 cells assessed as cell growth inhibition incubated for 72 hrs by CCK-8 assay; assay type: functional, cell-based; conditions: HN-6, 72 h
[19] = Induction of cell cycle arrest in human HN-6 cells assessed as accumulation of cells at G1 phase at 0.1 micromol/L incubated for 24 hrs by PI staining based flow cytometry analysi (reference value: 45.33%); assay type: functional; conditions: dose 0.1 µmol/L, at 0.1 µM
[20] = Induction of apoptosis in human HN-6 cells assessed as necrotic cells at 1 micromol/L incubated for 24 hrs by Annexin-V/FITC-PI staining based flow cytometry analysis (reference value: 2.08%); assay type: functional; conditions: dose 1 µmol/L, at 1 µM
[21] = Induction of cell cycle arrest in human HN-6 cells assessed as accumulation of cells at S phase at 0.1 micromol/L incubated for 24 hrs by PI staining based flow cytometry analysi (reference value: 31.19%); assay type: functional; conditions: dose 0.1 µmol/L, at 0.1 µM
[22] = AUC (0 to t) in rat at 100 mg/kg,IG measured upto 24 hrs by HPLC analysis; assay type: ADME, organism-based; design: dose 100 mg/kg, time < 24 hrs, route ig; conditions: in vivo, po
[23] = Induction of apoptosis in human HN-6 cells assessed as viable cells at 0.1 micromol/L incubated for 24 hrs by Annexin-V/FITC-PI staining based flow cytometry analysis (reference value: 97.26%); assay type: functional; conditions: HN-6, 24 h, dose 0.1 µmol/L, read-out: Activity
Mus musculus [24] = assay: Antitumor activity against human HN-6 cells xenografted in mouse serum assessed as reduction on CYFRA21-1 level at 80 mg/kg,IG administered daily for 2 weeks by ELISA; assay type: functional, organism-based
[25] = Acute toxicity in mouse xenografted with human HN-6 cells assessed as body weight loss at 80 mg/kg,IG administered daily for 2 weeks; assay type: organism-based; conditions: in vivo, po, 336 h
Mus musculus [26] = assay: Antitumor activity against human HN-6 cells xenografted in mouse serum assessed as reduction on SCCAg level at 80 mg/kg,IG administered daily for 2 weeks by ELISA; assay type: functional, organism-based
Mus musculus [27] = assay: Antitumor activity against human HN-6 cells xenografted in mouse serum assessed as reduction on TPS level at 80 mg/kg,IG administered daily for 2 weeks by ELISA; assay type: functional, organism-based
HN-6 [28] = assay: Antitumor activity against human HN-6 cells xenografted in mouse assessed as reduction on tumor growth at 80 mg/kg,IG administered daily for 2 weeks; assay type: functional, organism-based
[29] = Acute toxicity in Kunming mouse assessed as lethargy at 1 g/Kg,IG after 2 hrs of administration; conditions: in vivo, po, 1000 mg/kg
[30] = Acute toxicity in Kunming mouse assessed as change in body weight at 158 mg/kg,IG after 15 days of administration; assay type: organism-based; conditions: in vivo, po, 360 h, time 15 day
[31] = Acute toxicity in Kunming mouse assessed as hypothermia at 1 g/Kg,IG after 2 hrs of administration; conditions: in vivo, po, 1000 mg/kg
[32] = Acute toxicity in Kunming mouse assessed as hypothermia at 631 mg/kg,IG after 6 hrs of administration; assay type: organism-based; conditions: in vivo, po
[33] = Acute toxicity in Kunming mouse assessed as lethargy at 631 mg/kg,IG after 6 hrs of administration; assay type: organism-based; conditions: in vivo, po
[34] = Acute toxicity in Kunming mouse assessed as weakness at 1 g/Kg,IG after 2 hrs of administration; conditions: in vivo, po, 1000 mg/kg
[35] = Acute toxicity in Kunming mouse assessed as adverse effect at 158 mg/kg,IG after 15 days of administration; assay type: organism-based; conditions: in vivo, po, 360 h, time 15 day
[36] = Acute toxicity in Kunming mouse assessed as death at 398 mg/kg,IG after 15 days of administration; assay type: organism-based; conditions: in vivo, po, 360 h, time 15 day
[37] = Acute toxicity in Kunming mouse assessed as adverse effect at 251 mg/kg,IG after 15 days of administration; assay type: organism-based; conditions: in vivo, po, 360 h, time 15 day
[38] = Acute toxicity in Kunming mouse assessed as change in body weight at 251 mg/kg,IG after 15 days of administration; assay type: organism-based; conditions: in vivo, po, 360 h, time 15 day
[39] = Acute toxicity in Kunming mouse assessed as weakness at 631 mg/kg,IG after 6 hrs of administration; assay type: organism-based; conditions: in vivo, po

With `CCCCc1ccc2[nH]c(NC(=O)OC)nc2c1` [PARBENDAZOLE] the viability at 1 µM [1] was 51.8%, the IC50 (FaDu) was 160 nM and the IC50 (CAL-27) was 173 nM. For the same compound, the Tmax [2] was 4 h, the inhibition at 0.1 µM [3] was 12.8% and the Activity [4] was “Non-Toxic”. It also gave a Cmax [5] of 141 ng/mL, an IC50 (Tubulin) of 9550 nM and an Activity [6] of 16.02%. It also gave an Activity [7] of 25.96%, an IC50 at 72 h [8] greater than 20000 nM and an Activity [9] of 13.03%. The half-life [10] was 2.16 h, the Activity [11] was 21.71% and the Activity [12] was “Non-Toxic”. The inhibition (HN-6 [13]) was “Active”, the inhibition (Tubulin (Homo sapiens)) was 76.7% and the Activity [14] was 16.34%. The Activity [15] was 4.46%, the LD50 at 360 h [16] was greater than 1000 mg/kg and the Activity (HN-6 [17]) was “Active”. It also gave an IC50 [18] of 102 nM, an Activity [19] of 13.56% and an Activity [20] of 5.94%. For the same compound, the Activity [21] was 69.09%, the AUC(0-t) at 24 h [22] was 403 ng·h/mL and the viability at 0.1 µM [23] was 60.8%.

Work on `C=CCOC(=O)Nc1nc2ccc(CCCC)cc2[nH]1` yielded a viability at 1 µM [1] of 60.8%, an IC50 (FaDu) of 126 nM and an IC50 (CAL-27) of 118 nM. For the same compound, the Tmax [2] was 4 h, the Activity (Mus musculus [24]) was “Active” and the inhibition at 0.1 µM [3] was 8.1%. For the same compound, the Activity [4] was “Non-Toxic”, the Cmax [5] was 83 ng/mL and the IC50 (Tubulin) was 4410 nM. The Activity [6] was 19.14%, the Activity [7] was 21.43% and the IC50 at 72 h [8] was greater than 20000 nM. The Activity [9] was 4.98%, the Activity [25] was “Non-Toxic” and the half-life [10] was 2.19 h. For the same compound, the Activity [11] was 12.09%, the Activity [12] was “Non-Toxic” and the inhibition (HN-6 [13]) was “Active”. For the same compound, the inhibition (Tubulin (Homo sapiens)) was 86.6%, the Activity [14] was 12.28% and the Activity [15] was 3.77%. For the same compound, the LD50 at 360 h [16] was greater than 1000 mg/kg, the Activity (Mus musculus [26]) was “Active” and the Activity (HN-6 [17]) was “Active”. It also gave an IC50 [18] of 46.9 nM, an Activity [19] of 14.51% and an Activity [20] of 5.48%. For the same compound, the Activity [21] was 64.65%, the AUC(0-t) at 24 h [22] was 386 ng·h/mL and the viability at 0.1 µM [23] was 79.3%. The Activity (Mus musculus [27]) was “Active” and the Activity (HN-6 [28]) was “Active”.

`CCCCc1ccc2nc(NC(=O)OC(C)C)[nH]c2c1` gave a viability at 1 µM [1] of 52.6%, an IC50 (FaDu) of 126 nM and an IC50 (CAL-27) of 93.1 nM. The Tmax [2] was 2 h, the Activity (Mus musculus [24]) was “Active” and the inhibition at 0.1 µM [3] was 6.27%. The Cmax [5] was 169 ng/mL, the IC50 (Tubulin) was 4040 nM and the Activity [6] was 16.16%. The Activity [29] was “Toxic”, the Activity [30] was “Non-Toxic” and the Activity [7] was 24.75%. For the same compound, the IC50 at 72 h [8] was greater than 20000 nM, the Activity [9] was 11.53% and the Activity [31] was “Toxic”. The Activity [32] was “Toxic”, the Activity [25] was “Non-Toxic” and the half-life [10] was 1.95 h. For the same compound, the Activity [11] was 20.59%, the inhibition (HN-6 [13]) was “Active” and the inhibition (Tubulin (Homo sapiens)) was 98.9%. For the same compound, the Activity [33] was “Toxic”, the Activity [14] was 16.44% and the Activity [15] was 5.01%. For the same compound, the Activity [34] was “Toxic”, the LD50 at 360 h [16] was 341 mg/kg and the Activity (Mus musculus [26]) was “Active”. For the same compound, the Activity [35] was “Non-Toxic”, the Activity (HN-6 [17]) was “Active” and the IC50 [18] was 34.9 nM. For the same compound, the Activity [19] was 14.26%, the Activity [20] was 6.23% and the Activity [21] was 68.08%. For the same compound, the AUC(0-t) at 24 h [22] was 542 ng·h/mL, the Activity [36] was “Toxic” and the viability at 0.1 µM [23] was 62.9%. For the same compound, the Activity [37] was “Non-Toxic”, the Activity [38] was “Non-Toxic” and the Activity [39] was “Toxic”. For the same compound, the Activity (Mus musculus [27]) was “Active” and the Activity (HN-6 [28]) was “Active”.
